The structures appear in SMILES notation.

The text below walks through data of patent publication US8367801B2, “Proteinaceous compounds” (Endocrine Pharmaceuticals Limited, priority 2008, dated 2013).

In data set [1] the test system is PC3 prostate cancer cells. The data set is described as follows: Tumour cell viability, Alamar Blue. It counts as cell-based. The settings on record: 48 hours; mean n = 3, SEMs < 5%; camptothecin at 3 μmol. The procedure: (§1) The effects of micrin on viability of tumour cells were determined using MCF7 breast cancer cells and PC3 prostate cancer cells. Cells were plated out to provide 2×10^4 cells in 2 cm^2 wells in Dulbecco's modified Eagles medium (DMEM) containing 10% foetal calf serum (FCS), antibiotics and a stabilised substitute for glutamine (Glutamax, Invitrogen UK). The cells were allowed to attach overnight. The medium was removed and the cells were washed several times with fresh medium, and then treated with test or control samples diluted in medium.
(§2) Test and control samples were produced according to an ion exchange method using 120 ml sheep ovarian follicular fluid as the starting material. Follicular fluid obtained by aspiration of abattoir-derived sheep ovaries was centrifuged at +4° C. and 2000 g for 10 minutes, then spun through Amicon Centriprep-30 cartridges at 1800 g to give a nominal 0-30 kD fraction. This fraction was spun through Amicon Centriprep-3 cartridges to give a nominal 3-30 kD sub-fraction. […]
(§3) Camptothecin, an inducer of apoptosis, was used as a positive control at 3 μmol. After 48 hours the medium was changed for fresh medium and the number of remaining viable cells was quantitated using Alamar Blue. The number of viable cells in the micrin and camptothecin samples were expressed as a percentage of the number of viable cells in the micrin-free control samples. […]
Background: Resazurin is reduced to fluorescent resorufin, in cell work by metabolically active cells.

Another data set concerns MCF7 breast cancer cells. The data set is described as follows: Tumour cell viability, Alamar Blue. It counts as cell-based, human. Conditions: 48 hours; mean n = 3, SEMs < 5%; camptothecin at 3 μmol. As to the method:
as §1, §2, §3

Take `CC[C@@]1(O)C(=O)OCc2c1cc1n(c2=O)Cc2cc3ccccc3nc2-1` [Camptothecin]: the “Viability (% micrin-free control) PC3 (prostate cancer)” value in data set [1] worked out at 43.9 % micrin-free control. The “Viability (% micrin-free control) MCF-7 (breast cancer)” value in the data set on MCF7 breast cancer cells is on record as 56.2 % micrin-free control.
